The supplement of paper PMC5412046
Counter-ions that a name gives are not always drawn.

What was measured:
SB.mhdgc-1 = test: AC50 for growth inhibition (viability) (log10 M); higher = less potent; conditions: SB.mhdgc-1 (hereditary c.1380delA CDH1 gastric cancer)
Outline: (§1)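 Hereditary or sporadic patient-derived gastric cancer cells (500 cells in 5 μL medium per 1536 well) received 23 nL compound in DMSO by pintool. Dosing was 11 threefold dilutions starting at a final 46 μM. After 48 h, CellTiter-Glo was added for 30 min at room temperature and luminescence read on a ViewLux. Log half-maximal activity concentration came from a four-parameter fit of DMSO-normalised viability, keeping only high-quality curve classes.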

SB.msgc-1 = test: as above; conditions: SB.msgc-1 (sporadic gastric cancer)
Outline: as §1

Row | Structure (SMILES) | AC50 for growth inhibition (log10 M) (SB.mhdgc-1) | AC50 for growth inhibition (log10 M) (SB.msgc-1)
1 | CC[C@@]1(O)C[C@H](O[C@H]2C[C@H](N(C)C)[C@H](O[C@H]3C[C@H](O)[C@H](O[C@H]4CCC(=O)[C@H](C)O4)[C@H](C)O3)[C@H](C)O2)c2c(cc3c(c2O)C(=O)c2c(O)cccc2C3=O)[C@H]1C(=O)OC [Aclarubicin] | -6.78 | -6.28
2 | Cc1cc(Nc2cc(N3CCN(C)CC3)nc(/C=C/c3ccccc3)n2)n[nH]1 | -4.32 | -4.27
3 | C[C@]12Cc3cn[nH]c3C[C@@H]1CC[C@@H]1[C@@H]2CC[C@@]2(C)[C@H]1CC[C@]2(C)O [Stanozolol] | -5.98 | -5.63
4 | CN1CCCC(CC1)N2\N=C(CC3=CC=C(Cl)C=C3)/C4=C(C=CC=C4)C2=O (centres undefined) [Azelastine hydrochloride] | -6.08 | -6.03
5 | COc1cc(N2CCC(C(N)=O)CC2)ccc1Nc1nc(N)c(Cl)c(Nc2ccccc2[S+](=O)([O-])C(C)C)n1 | -6.03 | -5.58
6 | CC(C)Nc1cc(C(F)(F)F)cc2nc(NC(=O)c3cccnc3)nn12 [S-99] | -5.28 | -5.08
7 | CC(C)(O)/C=C\C(=O)[C@](C)(O)[C@H]1[C@H](O)C[C@]2(C)[C@@H]3CC=C4[C@@H](C=C(O)C(=O)C4(C)C)[C@]3(C)C(=O)C[C@@]12C [Cucurbitacin I] | -7.43 | -5.98
8 | ClC1=CC=C2N/C3=N/C(=O)CN3CC2=C1Cl [anagrelide] | -4.73 | -4.78
9 | C[C@@H](NC1=CC=CC=C1C(O)=O)C/2=C/C(=C\N3C(=O)/C=C(\N=C23)N4CCOCC4)C [AZD-6482] | -4.82 | -4.87
10 | O=C1NC(=O)[C@@H](c2cn3c4c(cccc24)CCC3)[C@@H]1c1c[nH]c2ccccc12 [Tivantinib] | -6.48 | -6.23
11 | CCC(C1CCC(C)C(O1)C(C)C(O)C(C)C(=O)C(CC)C2OC\3(O[C@]4(CC[C@@](C)(O4)C5CC[C@@](O)(CC)C(C)O5)C(O)\C=C3)C(C)CC2C)C([O-])=O (some centres undefined) [Salinomycin] | -6.28 | -6.58
12 | COc1ccc(Cc2nccc3cc(OC)c(OC)cc23)cc1OC [Papaverine hydrochloride] | -6.88 | -4.73
13 | COc1cc2nccc(Oc3ccc(NC(=O)C4(C(=O)Nc5ccc(F)cc5)CC4)cc3)c2cc1OC [Cabozantinib] | -6.33 | -5.48
14 | COC1=CC(=CC=C1)C2=CC=C(NC(=O)/C3=C(/CCC3)C(O)=O)C(=C2)F [Vidofludimus] | -5.33 | -4.88
15 | CC(C)C1=C(O)C=C(O)C(=C1)C/2=N/NC(=O)N2C3=CC4=C(C=C3)[N](C)C=C4 [Ganetespib] | -7.33 | -6.93
16 | N[S+]([O-])(=O)C1=CC=C(NC/2=C/C(=O)C3=CC=CC=C3C2=O)C=C1 | -6.23 | -4.98
17 | OC[C@H]1OC(OC2=CC3=C(C(=C2)O)C(=O)\C(=C/O3)C4=CC=C(O)C=C4)[C@H](O)[C@@H](O)[C@@H]1O (some centres undefined) [Genistin] | -5.78 | -6.33
18 | Fc1cc(-c2cccc3ncc(-c4cnn(C5CCNCC5)c4)nc23)cc(F)c1CN1CCOCC1 [NVP-BSK805] | -5.03 | -4.68
19 | CN(C)CCCN1c2ccccc2CCc2ccc(Cl)cc21 [Clomipramine hydrochloride] | -6.13 | -5.93

Row | Structure (SMILES) | AC50 for growth inhibition (log10 M) (SB.mhdgc-1) | AC50 for growth inhibition (log10 M) (SB.msgc-1)
20 | Cc1ccc(C(=O)Nc2ccc(CN3CCN(C)CC3)c(C(F)(F)F)c2)cc1C#Cc1cnc2cccnn12 [Ponatinib] | -5.78 | -4.88
21 | c1cc(OCCN2CCCCC2)cc(-c2n[nH]c3ccc(-c4nc[nH]n4)cc23)c1 [CC-401] | -4.78 | -4.78
22 | CC(C)CN(C[C@@H](O)[C@H](Cc1ccccc1)NC(=O)O[C@H]1CCOC1)[S+](=O)([O-])c1ccc(N)cc1 [Amprenavir] | -6.03 | -5.63
23 | O=C1NC(=O)/C(=C/c2ccc3nccc(-c4ccncc4)c3c2)S1 [GSK-615] | -6.33 | -6.03
24 | CC(=O)SCC(Cc1ccccc1)C(=O)NCC(=O)OCc1ccccc1 (centres undefined) [Racecadotril] | -6.68 | -6.23
25 | CC(C)(O)CC(=O)NCCn1ccc2ncnc(Nc3ccc(Oc4cccc(C(F)(F)F)c4)c(Cl)c3)c21 [TAK-285] | -5.43 | -6.88
26 | Nc1nnc(-c2cccc(Cl)c2Cl)c(N)n1 [Lamotrigine] | -4.53 | -4.63
27 | CCOc1ccccc1N/N=C1/C(=O)N(c2nc(-c3ccccc3)cs2)N=C1C [BAM7] | -5.48 | -5.48
28 | C[C@@H]\1COC(=N1)\NC2=CC3=C(C=C2)N=CN=C3NC4=CC(=C(OCC5=NC=CS5)C=C4)Cl [Varlitinib tosylate] | -6.63 | -6.53
29 | O=C(CCCCCCC(=O)Nc1ccccc1)NO [Vorinostat] | -5.63 | -5.58
30 | CCOc1ccc(Cc2cc([C@@H]3O[C@H](CO)[C@@H](O)[C@H](O)[C@H]3O)ccc2Cl)cc1 [Dapagliflozin] | -5.18 | -4.98
31 | CCC(=O)N[C@H]1CC[C@H](C(=O)N(C)c2ccc(-c3nc4ccccc4o3)cc2)C1 [FASN BI] | -5.93 | -5.93
32 | CNCCCC12CCC(c3ccccc31)c1ccccc12 [Maprotiline hydrochloride] | -4.78 | -4.63
33 | CCC[C@@H](C=O)NC(=O)[C@H](CC(C)C)NC(=O)[C@H](CC(C)C)NC(=O)OCc1ccccc1 [MG-115] | -5.98 | -5.88
34 | COc1cccc2c1C(=O)c1c(O)c3c(c(O)c1C2=O)C[C@@](O)(C(=O)CO)C[C@@H]3O[C@H]1C[C@H](N)[C@H](O)[C@H](C)O1 [Doxorubicin] | -7.33 | -6.43
35 | N=C(NCCCCCCNC(=N)NC(=N)Nc1ccc(Cl)cc1)NC(=N)Nc1ccc(Cl)cc1 [Chlorhexidine] | -5.28 | -5.43
36 | O=C1Nc2cc(Br)ccc2/C1=C1/Nc2ccccc2/C1=N\O [BIO] | -4.78 | -4.98
37 | C[C@@H]1C[C@H]2[C@@H]3CC\C4=C\C(=O)\C=C/[C@]4(C)[C@@]3(Cl)[C@@H](O)C[C@]2(C)[C@@]1(OC(=O)C5=CC=CO5)C(=O)CCl [Mometasone furoate] | -4.83 | -5.03
